# Experimental data: PubChem BioAssay (NCI)
# Values joined by “and” are separate entries in the source; they are usually repeats but may differ in a detail not shown here. Equal entries are not always repeated.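 Cultured in 96-well plates, cells were exposed to test compound for 48 hours across five concentrations. GI50 = concentration required for 50% inhibition of growth. Definition used: TGI = concentration required for complete inhibition of growth.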
# System: NCI-H226 lung
# Assay: NCI anticancer screen, dose series, 48 h
SMILES,GI50,TGI
Cc1cc(C2CCCCC2)n(O)c(=O)c1,2.2 µM,> 100 µM
CC(=O)[O][Hg][c]1c(C)c(C)c(C)c(C)c1C,3.65 µM,10 µM
COc1cc(C(=O)O[C@H](C(N)=O)[C@]2(C)CO2)c2ccccc2c1,20.1 µM,38.4 µM
CN(C)C(=S)SN(C)C(=O)Nc1ccccc1,,> 92.4 µM
COc1cc2c(/C=C3/C(=O)Nc4cccc(Cl)c43)c(Cl)n(Cc3ccccc3)c2cc1C,1.78 µM,11.1 µM
Cc1[nH]c(N=Nc2ccccc2)nc1N=Nc1ccccc1,2.7 µM,12.4 µM
COc1ccc(-c2cc3c(nn2)-c2ccccc2C3=O)cc1,> 100 µM,> 100 µM
COc1ccc(S(=O)(=O)N(Cc2ccc3c(n2)C=CC(C)(C)O3)C2CCC2)cc1OC,0.0101 µM,3.75 µM
O=C(CCCSc1nc(-c2ccc(Cl)cc2)cc(-c2ccc(Cl)cc2)n1)NO,2.17 µM,11.6 µM

# System: NCI-H460 lung
# Assay: NCI anticancer screen, dose series, 48 h
SMILES,GI50,TGI
Cc1cc(C2CCCCC2)n(O)c(=O)c1,0.507 µM,
CC(=O)[O][Hg][c]1c(C)c(C)c(C)c(C)c1C,0.747 µM,2.26 µM
COc1cc(C(=O)O[C@H](C(N)=O)[C@]2(C)CO2)c2ccccc2c1,10.4 µM,57.1 µM
CN(C)C(=S)SN(C)C(=O)Nc1ccccc1,,> 53.7 µM
COc1cc2c(/C=C3/C(=O)Nc4cccc(Cl)c43)c(Cl)n(Cc3ccccc3)c2cc1C,5.46 µM,> 56.3 µM
Cc1[nH]c(N=Nc2ccccc2)nc1N=Nc1ccccc1,2.37 µM,8.09 µM
COc1ccc(-c2cc3c(nn2)-c2ccccc2C3=O)cc1,> 100 µM,> 100 µM
COc1ccc(S(=O)(=O)N(Cc2ccc3c(n2)C=CC(C)(C)O3)C2CCC2)cc1OC,0.0196 µM,
O=C(CCCSc1nc(-c2ccc(Cl)cc2)cc(-c2ccc(Cl)cc2)n1)NO,0.44 µM,4.11 µM

# System: OVCAR-3 ovarian
# Assay: NCI anticancer screen, dose series, 48 h
SMILES,GI50,TGI
Cc1cc(C2CCCCC2)n(O)c(=O)c1,0.521 µM,54 µM
CC(=O)[O][Hg][c]1c(C)c(C)c(C)c(C)c1C,1.82 µM,3.31 µM
COc1cc(C(=O)O[C@H](C(N)=O)[C@]2(C)CO2)c2ccccc2c1,22.7 µM,45.2 µM
CN(C)C(=S)SN(C)C(=O)Nc1ccccc1,,41.2 µM
COc1cc2c(/C=C3/C(=O)Nc4cccc(Cl)c43)c(Cl)n(Cc3ccccc3)c2cc1C,8.84 µM,25.2 µM
Cc1[nH]c(N=Nc2ccccc2)nc1N=Nc1ccccc1,2.6 µM,16.1 µM
COc1ccc(-c2cc3c(nn2)-c2ccccc2C3=O)cc1,> 100 µM,> 100 µM
COc1ccc(S(=O)(=O)N(Cc2ccc3c(n2)C=CC(C)(C)O3)C2CCC2)cc1OC,< 0.01 µM,0.0955 µM
O=C(CCCSc1nc(-c2ccc(Cl)cc2)cc(-c2ccc(Cl)cc2)n1)NO,0.413 µM,2.14 µM

# System: SK-MEL-5 melanoma
# Assay: NCI anticancer screen, dose series, 48 h
SMILES,GI50,TGI
Cc1cc(C2CCCCC2)n(O)c(=O)c1,1.49 µM,7.38 µM and 38.3 µM
CC(=O)[O][Hg][c]1c(C)c(C)c(C)c(C)c1C,1.38 µM,2.74 µM
COc1cc(C(=O)O[C@H](C(N)=O)[C@]2(C)CO2)c2ccccc2c1,7.52 µM,22 µM
CN(C)C(=S)SN(C)C(=O)Nc1ccccc1,,46.4 µM
COc1cc2c(/C=C3/C(=O)Nc4cccc(Cl)c43)c(Cl)n(Cc3ccccc3)c2cc1C,2.17 µM,11.5 µM
Cc1[nH]c(N=Nc2ccccc2)nc1N=Nc1ccccc1,2.41 µM,7.83 µM
COc1ccc(-c2cc3c(nn2)-c2ccccc2C3=O)cc1,> 100 µM,> 100 µM
COc1ccc(S(=O)(=O)N(Cc2ccc3c(n2)C=CC(C)(C)O3)C2CCC2)cc1OC,< 0.01 µM,0.0376 µM
O=C(CCCSc1nc(-c2ccc(Cl)cc2)cc(-c2ccc(Cl)cc2)n1)NO,1.86 µM,4.06 µM

# System: UACC-62 melanoma
# Assay: NCI anticancer screen, dose series, 48 h
SMILES,GI50,TGI
Cc1cc(C2CCCCC2)n(O)c(=O)c1,0.873 µM,8.85 µM and 18.6 µM
CC(=O)[O][Hg][c]1c(C)c(C)c(C)c(C)c1C,0.856 µM,2.95 µM
COc1cc(C(=O)O[C@H](C(N)=O)[C@]2(C)CO2)c2ccccc2c1,15.9 µM,29.8 µM
CN(C)C(=S)SN(C)C(=O)Nc1ccccc1,,19.1 µM
COc1cc2c(/C=C3/C(=O)Nc4cccc(Cl)c43)c(Cl)n(Cc3ccccc3)c2cc1C,1.67 µM,24.1 µM
Cc1[nH]c(N=Nc2ccccc2)nc1N=Nc1ccccc1,1.83 µM,4.34 µM
COc1ccc(-c2cc3c(nn2)-c2ccccc2C3=O)cc1,> 100 µM,> 100 µM
COc1ccc(S(=O)(=O)N(Cc2ccc3c(n2)C=CC(C)(C)O3)C2CCC2)cc1OC,< 0.01 µM,0.05 µM
O=C(CCCSc1nc(-c2ccc(Cl)cc2)cc(-c2ccc(Cl)cc2)n1)NO,0.946 µM,3.1 µM
